# Data: article PMC13293952 (Cell Reports Medicine, 2026)
# What was measured:
# CFA mice = assay: CFA model of inflammatory pain, von Frey paw withdrawal threshold; assay type: in vivo, mouse; conditions: 3 mg/kg s.c. on days 11 and 40 after CFA, AAV8-tdTomato controls
# PICK1 = PICK1 (Rattus norvegicus, UniProt Q9EP80); assay: FPLC; assay type: biochemical; conditions: FPLC Superdex 200, PICK1 40 µM, molar ratio 1:4 or 1:2, >=20 h at 4°C, A280
# Chain of PICK1 (Q9EP80 whole entry): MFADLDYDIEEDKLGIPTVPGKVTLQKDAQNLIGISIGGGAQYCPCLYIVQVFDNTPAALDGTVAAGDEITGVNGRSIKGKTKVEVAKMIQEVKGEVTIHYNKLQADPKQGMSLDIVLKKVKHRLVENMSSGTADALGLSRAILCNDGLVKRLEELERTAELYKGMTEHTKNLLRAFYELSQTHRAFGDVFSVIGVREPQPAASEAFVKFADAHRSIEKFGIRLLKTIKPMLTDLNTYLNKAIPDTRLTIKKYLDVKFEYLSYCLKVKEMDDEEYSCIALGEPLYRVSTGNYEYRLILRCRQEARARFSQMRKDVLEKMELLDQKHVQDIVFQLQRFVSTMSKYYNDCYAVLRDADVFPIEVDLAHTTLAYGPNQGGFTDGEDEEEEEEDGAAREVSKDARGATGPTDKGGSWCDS
molecule,measurement,setting,value
"O=C1CC[C@@]2(O)[C@H]3Cc4ccc(O)c5c4[C@@]2(CCN3CC2CC2)[C@H]1O5 [NTX, naltrexone]",reinstatement of allodynia,CFA mice,selectively reinstated allodynia in this group
biotin-ahx-GEELLEDIRKFNEMRKNMDQLKEKINSVLSIRQGGGGS-HWLKV [SSO10a-C5],PICK1 oligomerization,PICK1,drove PICK1 oligomerization
